Assay: xn = mol fraction of the nth substance listed
Details: 101 kPa

CCCCCCCCCC[n+]1ccn(C)c1.[Br-] + O
viscosity [mPa·s]
Details | 288 K | 293 K | 298 K | 303 K | 308 K
x1 = 0.0146 | 3.39 | 3.21 | 2.77 | – | 1.94
x1 = 0.0194 | 4.6 | 4.1 | 3.72 | – | 2.83
x1 = 0.0248 | 6.77 | 5.99 | 5.72 | 5.12 | 4.22
x1 = 0.031 | 9.19 | 8.61 | 8.09 | 7.92 | 7.3

Source: a compilation of properties of binary mixtures (doi:10.1016/j.molliq.2017.09.038)
